Calls of active or inactive are those of the source.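 Rule for the calls: active = Compounds that kill half the cells at a concentration of 5 micromolar or below, from the fitted or estimated CC50; inactive = CC50 above 5 micromolar.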
System: Jurkat E6.1 viability, ATP luminescence, 48 h
Assay: viability loss in Jurkat T cells – cell-based, ATP luminescence, 48 h, 60K MLSMR, cytotoxicity control, dose response (AID 464)

SMILES | CC50
COc1ccc(C(=O)N2CCN(c3cccc(Cl)c3)CC2)c(OC)c1 | 8.58 µM (inactive)
CC(=O)c1c(N2CCN(Cc3ccccc3)CC2)[nH]c(-c2ccccc2)nc1=S | > 40 µM (inactive)
O=C(Nc1nnc(-c2cccs2)o1)c1cccc(F)c1 | 21.7 µM (inactive)
CCCCCOC(=O)c1[nH]c2c(c1C)C(=O)CC(c1ccco1)C2 (stereo unspecified) | 0.084 µM
CN1CCN(Cc2cc(COCc3ccccc3)c3cccnc3c2O)CC1 | 10.5 µM (inactive)
Cc1cc(Cl)ccc1OCCCC(=O)NO | 8.2 µM (inactive)
O=C(Nc1nccs1)c1ccc(S(=O)(=O)NCC2CCCCC2)cc1 | > 40 µM (inactive)
CCCc1cc(C(=O)Nc2cc(Br)ccc2O)no1 | > 40 µM (inactive)
O=C(Nc1nc2ccc(S(=O)(=O)N3CCCC3)cc2s1)C1CCCCC1 | 3.73 µM
CCCNS(=O)(=O)c1ccc(OCC(=O)N2CCN(Cc3ccc4c(c3)OCO4)CC2)cc1 | 7.96 µM (inactive)
Cc1sc(NC(=O)c2ccco2)nc1-c1ccc2c(c1)CC(C)N2C(=O)C1CC1 (stereo unspecified) | 16.3 µM (inactive)
CCOC(=O)C1CCN(Cc2ccc(O)c3ncccc23)CC1 | 9.85 µM (inactive)
Cc1cccc(N2CCN(C(=O)c3ccncc3)CC2)c1C | 2.78 µM
O=C(CSc1nnnn1C1CC2CCC1C2)Nc1ccnc2ccccc12 (stereo unspecified) | 0.092 µM
Cc1ccc2c(c1)[nH]c1c(N3CCN(Cc4ccccc4)CC3)ncnc12 | > 40 µM (inactive)
COc1cc(NS(=O)(=O)c2ccc(OC)c(C)c2C)c(OC)cc1Cl | 1.62 µM
O=C(c1cccc(F)c1)N1CCN(c2cccc(Cl)c2)CC1 | 4.55 µM
O=C1N/C(=C\c2ccccc2)c2ccccc21 | > 4.4 µM (inactive)
CCOC(=O)c1[nH]c(C)c(C(=O)N2CCc3ccccc32)c1C | 0.284 µM
O=C1CCCN1c1ccc(S(=O)(=O)Nc2ccc3c(c2)OCCO3)cc1 | 1.78 µM
O=C(CCCCn1c(=O)c2ccccc2n(Cc2ccc(F)cc2)c1=O)NCc1ccco1 | 9.14 µM (inactive)
CCOC(=O)c1[nH]c2c(c1C)C(=O)CC(c1ccco1)C2 (stereo unspecified) | 0.201 µM
CCc1cc2c(=O)n(Cc3ccco3)c(SCc3c(C)noc3C)nc2s1 | 4.4 µM
Cc1[nH]c2c(C(F)(F)F)cccc2c1CCN | 10.4 µM (inactive)
COc1cc(N=Cc2c(O)[nH]c3ccccc23)cc(OC)c1OC | 1.58 µM
Cn1cc(/C(Cc2ccccc2)=N\O)c2ccccc21 | 12.9 µM (inactive)

SMILES | CC50
OC1(c2cccc(C(F)(F)F)c2)CCN(c2ncnc3c2[nH]c2ccc(F)cc23)CC1 | 14.4 µM (inactive)
CC(=O)Nc1ccc(S(=O)(=O)n2cnc3cc(C)c(C)cc32)cc1 | 24.8 µM (inactive)
Cc1cccc(N2CCN(C(=O)c3ccc(CS(=O)(=O)c4ccccc4C)o3)CC2C)c1 (stereo unspecified) | 0.785 µM
CCCCCCc1ccc(-c2ncc(N)cn2)cc1 | 28.5 µM (inactive)
Cc1cccc(OCC(=O)Nc2cc(C)ccc2O)c1 | 5.78 µM (inactive)
Cc1ccc(-c2csc3ncnc(Sc4nnc(CN5CCCCCC5=O)o4)c23)cc1 | 5.28 µM (inactive)
CCCCN(CC)S(=O)(=O)c1ccc(C(=O)Nc2nnc(-c3cccs3)o2)cc1 | 13.9 µM (inactive)
CC1(C)Cc2nc3sc4c(SCC(=O)NCc5ccco5)ncnc4c3cc2CO1 | 18 µM (inactive)
O=C(Nc1nnc(C2CC2)o1)c1ccc(S(=O)(=O)N2CCCc3ccccc32)cc1 | 22.9 µM (inactive)
COC(=O)c1[nH]c2c(c1C)C(=O)CC(c1cc(OC)ccc1OC)C2 (stereo unspecified) | 3.89 µM
CSc1nc2nc3c(c(=O)n2[nH]1)CN(Cc1ccccc1)CC3 | > 40 µM (inactive)
CCOC(=O)CSC1=C(C#N)C(c2sccc2C)CC(=O)N1 (stereo unspecified) | 1.91 µM
CCOC(=O)c1[nH]c(C)c(C(=O)Nc2cc(Cl)ccc2C)c1C | 0.248 µM
CC(C)Oc1ccccc1C1CC(=O)Nc2cc3c(cc21)OCCO3 (stereo unspecified) | 0.576 µM
CC1CC(C)CN(S(=O)(=O)c2ccc(C(=O)NCCCn3ccnc3)cc2)C1 (stereo unspecified) | 1.08 µM
CCOc1ccc(N(CC(=O)Nc2ccccc2C)S(=O)(=O)c2c(C)noc2C)cc1 | 1.35 µM
O=C(c1cc2c(s1)-c1ccccc1OC2)N1CCC2(CC1)OCCO2 | 6.1 µM (inactive)
Cn1nc(-c2ccc(OCC(=O)N3CCN(Cc4ccccc4)CC3)cc2)c2ccccc2c1=O | 9.14 µM (inactive)
Cc1cc(N2CCN(c3nc4ccccc4s3)CC2)n2ncnc2n1 | 8.41 µM (inactive)
COc1ccccc1NC(=O)N(Cc1ccco1)Cc1cc2ccc(C)c(C)c2[nH]c1=O | 1.81 µM
Cc1sc(NC(=O)c2ccco2)c(C(c2cccnc2)N2CCN(c3ccc(F)cc3)CC2)c1C (stereo unspecified) | > 40 µM (inactive)
Cn1c(C(=O)NCCc2c[nH]c3ccccc23)cc2sccc21 | > 40 µM (inactive)
CCOC(=O)c1[nH]c(C)c(C(=O)Nc2ccc(C)c(F)c2)c1C | 7.19 µM (inactive)
CCSc1nnc(NC(=O)c2ccccn2)s1 | 8.3 µM (inactive)
O=c1cc(Nc2ccc3c(c2)OCCO3)[nH]c(=O)n1C1CCCCC1 | 11.7 µM (inactive)
Cc1cc(C(=O)N2CCN(c3cccc(Cl)c3)CC2)c(C)o1 | 4.95 µM

SMILES | CC50
Cc1noc(C)c1COC(=O)c1cccc(S(=O)(=O)N2CCCCCC2)c1 | 21.4 µM (inactive)
CC(C)OCCCNc1ncnc2c1[nH]c1ccc(F)cc12 | 2.02 µM
O=C(c1ccc(F)cc1)C(CN1CCOCC1)c1ccccc1 (stereo unspecified) | 5.53 µM (inactive)
O=C(c1ccccc1-c1ccccc1)N1CCN(c2ccccn2)CC1 | 1.55 µM
Cc1cc(NC(=O)COc2cccc(Oc3ccccc3)c2)no1 | 8.94 µM (inactive)
COC(=O)c1ccc(Oc2cc(C)nc(-n3nc(C)cc3C)n2)cc1 | 0.112 µM
Oc1ccc(COCc2ccccc2)c2cccnc12 | 3.06 µM
CCN(CC)c1ccc(NC(=O)c2ccccc2F)cc1 | > 4.4 µM (inactive)
Cc1cccc(N2CCN(C(=O)c3ccc(Cl)c(S(=O)(=O)NCc4ccco4)c3)CC2)c1C | 9.8 µM (inactive)
CCOC(=O)c1c(C)c(C(=O)Nc2cc(OC)ccc2OC)c(C)n1CC | 11.4 µM (inactive)
c1ccc(-c2noc(-c3ccc4c(c3)OCO4)n2)nc1 | 2.75 µM
CCCCOc1ccccc1C1CC(=O)NC2=C1C(=O)CCC2 (stereo unspecified) | 0.872 µM
O=C(CCCc1nc(-c2ccc(Cl)cc2)no1)Nc1cccnc1 | 5.56 µM (inactive)
COc1ccc(S(=O)(=O)Cc2ccc(C(=O)N3CCN(c4cccc(C)c4)C(C)C3)o2)cc1 (stereo unspecified) | 1.6 µM
COc1cc(C(Nc2ccccn2)c2ccc3ccc(C)nc3c2O)cc(OC)c1O (stereo unspecified) | 6.78 µM (inactive)
Oc1c(CN2CCCCC2)cc(COCc2ccccc2)c2cccnc12 | 3.31 µM
OCCN1CCN(C(c2cccs2)c2ccc3cccnc3c2O)CC1 (stereo unspecified) | 13.5 µM (inactive)
O=C1CN=C(c2cccs2)c2c(sc3c2CCCC3)N1 | 7.46 µM (inactive)
CCCOc1ccc2ccccc2c1/C=N/n1c(C)nnc1-n1nc(C)cc1C | 1.96 µM
Cc1nc(C)c(C(=O)Nc2ccc(Oc3ccccc3)cc2)o1 | 19.4 µM (inactive)
COc1cc(C2Nc3ccc4ncccc4c3C3=C2C(=O)CCC3)cc(OC)c1O (stereo unspecified) | 6.15 µM (inactive)
COc1ccc(C(NC(C)=O)c2ccc3cccnc3c2O)c(OC)c1 (stereo unspecified) | 3.15 µM
Cn1c(-c2ccccc2)cc2c3no[n+]([O-])c3ccc21 | 2.41 µM
COC(=O)c1cc2ccsc2n1CC(=O)Nc1cc(Cl)ccc1OC | > 4.4 µM (inactive)
